Results reported in patent publication US20100216802A1, “PTERIDINE DERIVATIVES AS POLO-LIKE KINASE INHIBITORS USEFUL IN THE TREATMENT OF CANCER” (CHROMA THERAPEUTICS LTD., priority 2006, published 2010).
pIC50: −log10 of the molar value. Read-outs that look alike come from different tables or passages of the source.

Legend:
PLK1 = biological target: T1, PLK1 (Homo sapiens, UniProt P53350); assay: PLK1 enzyme assay (Z'-LYTE, Invitrogen); assay type: biochemical; details: for pIC50: ATP at or close to Km, read-out: Inhibitor Activity vs PLK1
T1 construct: purchased Invitrogen (Paisley, UK)
T1 sequence (P53350 whole entry): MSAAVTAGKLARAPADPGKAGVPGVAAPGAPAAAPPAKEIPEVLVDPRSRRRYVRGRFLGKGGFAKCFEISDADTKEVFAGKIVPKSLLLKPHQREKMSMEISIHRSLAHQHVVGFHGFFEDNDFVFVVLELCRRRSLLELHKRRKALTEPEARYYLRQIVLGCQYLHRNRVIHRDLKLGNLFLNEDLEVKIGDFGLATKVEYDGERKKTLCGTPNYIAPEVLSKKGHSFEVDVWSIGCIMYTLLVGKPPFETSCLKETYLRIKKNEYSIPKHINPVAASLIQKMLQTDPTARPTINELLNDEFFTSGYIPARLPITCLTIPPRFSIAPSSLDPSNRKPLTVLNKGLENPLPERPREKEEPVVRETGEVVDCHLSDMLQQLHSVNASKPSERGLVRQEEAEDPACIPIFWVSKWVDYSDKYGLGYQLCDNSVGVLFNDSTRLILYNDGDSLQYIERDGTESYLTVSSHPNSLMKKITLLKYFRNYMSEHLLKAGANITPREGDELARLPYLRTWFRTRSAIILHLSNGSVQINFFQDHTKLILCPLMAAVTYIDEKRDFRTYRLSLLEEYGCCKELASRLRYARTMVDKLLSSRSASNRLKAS
Description: The ability of compounds to inhibit PLK-1 kinase activity was measured in an assay performed by Invitrogen (Paisley, UK). The Z′-LYTE™ biochemical assay employs a fluorescence-based, coupled-enzyme format and is based on the differential sensitivity of phosphorylated and non-phosphorylated peptides to proteolytic cleavage. The peptide substrate is labelled with two fluorophores—one at each end—that make up a FRET pair. In the primary reaction, the kinase transfers the gamma-phosphate of ATP to a single serine or threonine residue in a synthetic FRET-peptide. In the secondary reaction, a site-specific protease recognizes and cleaves non-phosphorylated FRET-peptides. Phosphorylation of FRET-peptides suppresses cleavage by the Development Reagent. Cleavage disrupts FRET between the donor (i.e., coumarin) and acceptor (i.e., fluorescein) fluorophores on the FRET-peptide, whereas uncleaved, phosphorylated FRET-peptides maintain FRET. A […] method, which calculates the ratio (the Emission Ratio) of donor emission to acceptor emission after excitation of the donor fluorophore at 400 nm, is used to quantitate reaction progress.
The assay is performed at an ATP concentration at, or close to, the Km. After the 60 minute Kinase Reaction incubation at RT, 5 μL of a 1:8 dilution of Development Reagent is added. The assay plate is incubated for a further 60 minutes at RT and read on a fluorescence plate reader.
Duplicate data points are generated from a ⅓ log dilution series of a stock solution of test compound in DMSO. Nine dilutions steps are made from a top concentration of 10 μM, and a ‘no compound’ blank is included. Data is collected and analysed using XLfit software from IDBS.

HCT 116 cell line = assay: Cell inhibition assay method A (WST-1, 120 hrs); assay type: cell-based; details: Homo sapiens, HCT-116, method A, read-out: Inhibitor Activity vs HCT 116 cell line (method A)
Description: (§1) Cell inhibition assays were carried out using either method A or method B
Cells were seeded in 96W tissue culture plates (1 well=30 mm^2) at a density of […] per well in 50 μL of the appropriate culture medium (see below). 24 hrs later […] of the compound prepared in the same medium was added as 4 fold dilutions to give final concentrations in the range 0.15 nM-2500 nM (n=6 for each concentration). The plates were then incubated at 37° C., 5% CO2 for 120 hrs. Cell proliferation was assessed using WST-1 (a metabolic indicator dye, Roche Cat no. 1 644 807) according to the manufacturers instructions. The results were calculated as percentage of vehicle response and IC50 values represent the concentration of compound that inhibited the vehicle response by 50%.
HCT-116 culture medium —Dulbeccos MEM (Sigma D6546) plus 10% heat inactivated fetal calf serum (Hyclone SH30071 Thermo Fischer Scientific) containing 2 mM Glutamine (Sigma cat no G-7513) and 50 U/ml Penicillin and Streptomycin Sulphate (Sigma Cat no P-0781).

U937 cell = assay: Cell inhibition assay method B (tritiated thymidine incorporation, 72 hrs); assay type: cell-based; details: Homo sapiens, U-937, read-out: Inhibition of U937 cell proliferation (IC50, nM) (method B)
Description: as §1
The plates were then incubated at 37° C., 5% CO2 for 72 hrs.
A tritiated thymidine incorporation assay was used as a measure of cell proliferation. In short, cells were incubated with 0.4 μCi/well for 4 hrs before harvesting onto filtermats. These were dried, meltilex scintillation sheets melted on, then sealed in bags and ^3H emission counted on a Trilux microbeta counter.

Structure (SMILES) | pIC50 (PLK1) | IC50 (PLK1; ester (for Compound 1: the compound itself, one cell spans ester/acid), read-out: Inhibition of PLK (IC50, nM) ester) | pIC50 (HCT 116 cell line) | IC50 (U937 cell)
CC[C@@H]1C(=O)N(C)c2cnc(Nc3ccc(C(=O)NC4CCN(CCC[C@H](N)C(=O)OC(C)(C)C)CC4)cc3OC)nc2N1C1CCCC1 [Example 23, tert-butyl 5-{4-[(4-{[(7R)-8-cyclopentyl-7-ethyl-5-methyl-6-oxo-5,6,7,8-tetrahydropteridin-2-yl]amino}-3-methoxybenzoyl)amino]piperidin-1-yl}-L-norvalinate] | > 7.00 |  | > 7.00 | 
CC[C@@H]1C(=O)N(C)c2cnc(Nc3ccc(C(=O)NC4CCN(CCC[C@H](N)C(=O)OC5CCCC5)CC4)cc3OC)nc2N1C1CCCC1 [Example 24, Cyclopentyl 5-{4-[(4-{[(7R)-8-cyclopentyl-7-ethyl-5-methyl-6-oxo-5,6,7,8-tetrahydropteridin-2-yl]amino}-3-methoxybenzoyl)amino]piperidin-1-yl}-L-norvalinate] | > 7.00 |  | > 7.00 | 
CC[C@@H]1C(=O)N(C)c2cnc(Nc3ccc(C(=O)NC4CCN(CC[C@H](N)C(=O)OC(C)(C)C)CC4)cc3OC)nc2N1C1CCCC1 [Example 25, t-Butyl (2S)-2-amino-4-{4-[(4-{[(7R)-8-cyclopentyl-7-ethyl-5-methyl-6-oxo-5,6,7,8-tetrahydropteridin-2-yl]amino}-3-methoxybenzoyl)amino]piperidin-1-yl}butanoate] | > 7.00 |  | > 7.00 | 
CC[C@@H]1C(=O)N(C)c2cnc(Nc3ccc(C(=O)NC4CCN(CC[C@H](N)C(=O)OC(C)(C)C)CC4)cc3C)nc2N1C1CCCC1 [Example 26, t-Butyl (2S)-2-amino-4-{4-[(4-{[(7R)-8-cyclopentyl-7-ethyl-5-methyl-6-oxo-5,6,7,8-tetra hydropteridin-2-yl]amino}-3-methylbenzoyl)amino]piperidin-1-yl}butanoate] | > 7.00 |  | > 7.00 | 
CC[C@@H]1C(=O)N(C)c2cnc(Nc3ccc(C(=O)NC4CCN(CCC[C@@H](N)C(=O)OC5CCCC5)CC4)cc3OC)nc2N1C1CCCC1 [Example 27, Cyclopentyl 5-{4-[(4-{[(7R)-8-cyclopentyl-7-ethyl-5-methyl-6-oxo-5,6,7,8-tetrahydropteridin-2-yl]amino}-3-methoxybenzoyl)amino]piperidin-1-yl}-D-norvalinate] | > 7.00 |  | > 7.00 | 
CC[C@@H]1C(=O)N(C)c2cnc(Nc3ccc(C(=O)NC4CCN(CC[C@H](N)C(=O)OC(C)(C)C)CC4)cc3F)nc2N1C1CCCC1 [Example 29, t-Butyl (2S)-2-amino-4-{4-{(4-{[(7R)-8-cyclopentyl-7-ethyl-5-methyl-6-oxo-5,6,7,8-tetrahydropteridin-2-yl]amino}-3-fluorobenzoyl)amino]piperidin-1-yl}butanoate] | > 7.00 |  | > 7.00 | 

Results, then the compound that gave them:

pIC50 (PLK1) | IC50 (PLK1; ester (for Compound 1: the compound itself, one cell spans ester/acid), read-out: Inhibition of PLK (IC50, nM) ester) | pIC50 (HCT 116 cell line) | IC50 (U937 cell) | Structure (SMILES)
> 7.00 | 6 nM | > 7.00 | 0.09 nM | CC[C@@H]1C(=O)N(C)c2cnc(Nc3ccc(C(=O)NC4CCN(CC[C@H](N)C(=O)OC5CCCC5)CC4)cc3OC)nc2N1C1CCCC1 [Example 22, Cyclopentyl (2S)-2-amino-4-{4-[(4-{[(7R)-8-cyclopentyl-7-ethyl-5-methyl-6-oxo-5,6,7,8-tetrahydropteridin-2-yl]amino}-3-methoxybenzoyl)amino]piperidin-1-yl}butanoate]
> 7.00 |  | > 7.00 |  | CC[C@@H]1C(=O)N(C)c2cnc(Nc3ccc(C(=O)NC4CCN(CC[C@H](N)C(=O)OC5CCCC5)CC4)cc3C)nc2N1C1CCCC1 [Example 28, Cyclopentyl (2S)-2-amino-4-(4-[(4-{[(7R)-8-cyclopentyl-7-ethyl-5-methyl-6-oxo-5,6,7,8-tetra hydropteridin-2-yl]amino}-3-methylbenzoyl)amino]piperidin-1-yl}butanoate]
> 7.00 |  | > 7.00 |  | CC[C@@H]1C(=O)N(C)c2cnc(Nc3ccc(C(=O)NC4CCN(CC[C@H](N)C(=O)OC5CCCC5)CC4)cc3F)nc2N1C1CCCC1 [Example 30, Cyclopentyl (2S)-2-amino-4-{4-[(4-{[(7R)-8-cyclopentyl-7-ethyl-5-methyl-6-oxo-5,6,7,8-tetra hydropteridin-2-yl]amino}-3-fluorobenzoyl)amino]piperidin-1-yl}butanoate]
> 7.00 |  | > 7.00 |  | CC[C@@H]1C(=O)N(C)c2cnc(Nc3ccc(C(=O)NC4CCN(CC[C@@H](N)C(=O)OC5CCCC5)CC4)cc3OC)nc2N1C1CCCC1 [Example 31, Cyclopentyl (2R)-2-amino-4-{4-[(4-{((7R)-8-cyclopentyl-7-ethyl-5-methyl-6-oxo-5,6,7,8-tetra hydropteridin-2-yl]amino}-3-methoxybenzoyl)amino]piperidin-1-yl}butanoate]
